# Test results from US20250043360A1, “USE OF RPN11 MARKER IN DETECTION OF MYELOMA AND DISEASE RISK THEREOF, PROGNOSIS ANALYSIS AND TREATMENT MEDICAMENT” (Peking University, priority 2022, published 2025).
# Key:
# Format in all cases: cell-based
# [1] = test system: bortezomib-resistant LP-1 cells (LP-1BR); assay: Cell apoptosis experiment, bortezomib-resistant LP-1 cells; conditions: LP-1BR cells, vs control group (Vehicle); OPA 10 μM, Capzimin 2 μM; FIG. 7B
# Protocol: (§1) Apoptosis was detected in LP-1 cells stably overexpressing and knocking down RPN11. The cells were treated with camptothecin (CPT) for 24 h, washed with PBS, double-stained with Annexin V-APC/propidium iodide (PI) for 15 min at room temperature in the dark, and cell collection and analysis were conducted on each sample using a FACS Calibur flow cytometer.
# (§2) Wild-type or bortezomib-resistant LP-1 cells (LP-1 or LP-1BR) were treated with Vehicle or RPN11 inhibitor (OPA or Capzimin) separately, and the proliferation and apoptosis of LP-1BR cells were detected through CCK cell counting experiment and cell apoptosis experiment.
# [2] = test system: bortezomib-resistant LP-1 cells (LP-1BR); assay: CCK cell counting experiment, bortezomib-resistant LP-1 cells; conditions: LP-1BR cells, vs control group (Vehicle); OPA 10 μM, Capzimin 2 μM; FIG. 7A
# Protocol: (§3) CCK kit was used to detect cell proliferation of LP-1 cells stably overexpressing and knocking down RPN11: after the transfected cells were cultured for 48 h, the cells were digested with 0.25% trypsin and counted, inoculated in a 96-well plate at a concentration of 1×10^4 cells/mL, 100 μL in each well; 10 μL of CCK8 reagent was added to each well of the 96-well plate in the dark, the culture plate was shaken for 3 min, then placed into the incubator to continue culturing for 2 h, and the culture plate was taken out and the OD value was measured at a wavelength of 450 nm with a microplate reader.
# as §2
# LP-1 cells [3] = assay: Cell apoptosis experiment, wild-type LP-1 cells; conditions: vs control group (Vehicle), OPA 10 μM, Capzimin 2 μM, FIG. 7B
# Protocol: as §1, §2
# LP-1 cells [4] = assay: CCK cell counting experiment, wild-type LP-1 cells; conditions: vs control group (Vehicle), OPA 10 μM, Capzimin 2 μM, FIG. 7A
# Protocol: as §3, §2
# LP-1 cells [5] = assay: CCK cell counting assay, RPN11 inhibitor combined with Lenalidomide or Dexamethasone; conditions: vs either agent alone, range of concentrations, FIG. 8
# Protocol: as §3
# LP-1 cells were treated with RPN11 inhibitors (OPA or Capzimin) or/and Lenalidomide or Dexamethasone (within a range of concentrations), and the cell proliferation ability was detected using CCK cell counting assay.
structure (smiles),measurement,setting,value
c1cnc2c(c1)ccc1cccnc12 [OPA],number of apoptotic cells,[1],significantly increased
same,proliferation ability,[2],significantly reduced
same,number of apoptotic cells,LP-1 cells [3],significantly increased
same,proliferation ability,LP-1 cells [4],significantly reduced
same,combined treatment effect on inhibiting the growth and proliferation,LP-1 cells [5]; combined with dexamethasone,synergistic effect
same,combined treatment effect on inhibiting the growth and proliferation,LP-1 cells [5]; combined with lenalidomide,synergistic effect
